No end group written: not given here.
How the values were obtained:
[1] = system: IdIs derived from NOD/Uf pancreatic IPSCs; assay: Insulin content and secretion of cultured IdIs upon glucose stimulation (insulin ELISA); type: cell-based, mouse; conditions: for insulin release from IdIs by secretagogues: 10 mM arginine or 1 nM GLP-1 with 17.5 mM glucose, final 3 hours, lesser degree than nicotinamide
Description: To determine insulin secretion, 300 IdIs derived from NOD/Uf pancreatic IPSCs were cultured in vitro for 5 days in EHAA medium containing either 0.5% NMS or prediabetic NOD mouse serum with or without nicotinamide (1-10 mM). At the end of the culture period, cells were washed twice in Krebs ringer buffer (KRB) and stimulated with 17.5 mM glucose in KRB for 3 hours.
Three hundred IdIs (from culture flasks containing EHAA-0.5% NMS medium) were seeded in 24 well plates in 2 ml of EHAA medium containing 0.5% of NMS with or without nicotinamide (1-10 mM) for 5 days at 37° C. (5% CO2). For secretagogues, IdIs were cultured in EHAA-0.5% NMS medium for 5 days. Three hours prior to the end of the incubation period, medium was removed and IdIs gently washed twice with KRB. To stimulate insulin secretion, 17.5 mM glucose was added to wells in 1 ml of KRB, and incubated at 37° C. for 3 hrs. Following incubation, culture supernatants were stored at −70° C. until use. The IdIs in each well were then subjected to 1 ml of ice-cold acid-ethanol extraction overnight at 4° C., and cell-free extracts were neutralized with Tris base (400 mM final concentration) prior to storing at −70° C. until use. To test the effect of secretagogues, 10 mM arginine and 1 nM GLP-1 (Sigma Chemicals, St Louis, Mo.) were used for the final 3 hours incubation in KRB. The insulin in the supernatants and in the extract were determined using an insulin ELISA kit (Crystal Chemical Inc., Chicago, Ill.), with rat insulin standard for quantitation (supplied in the kit). Comparisons between groups were done using the one tailed t-test.

human cell line (#H3) = assay: Differentiation of human IPSCs with nicotinamide and ECM (immunohistochemical staining); type: cell-based; conditions: upon treatment with nicotinamide
From the text: Several lines were derived from human pancreatic ductal preparation provided by DRI (Miami, Fla.). […] Only about 2% of the cells express insulin (FIG. 16M). None of the cells express tyrosine hydroxylase (FIG. 16G).

IPSC line #7 = assay: Expression of development/differentiation factors in IPSC line #7 under nicotinamide; type: cell-based, mouse
Description: Nicotinamide has also been determined to enhance expression of various factors involved in the development/differentiation of the pancreas. […] A differentially regulated expression of Ins I and II was also apparent: Ins I was expressed at lower concentrations of nicotinamide (1-20 mM), while Ins II was expressed at 20-40 mM nicotinamide. Glucagon expression was visible only at a low dose of nicotinamide (<10 mM), while amylase expression was maintained at all doses (0-40 mM) (data not shown).

Compound | insulin release from IdIs by secretagogues [1] | cells expressing insulin (human cell line (#H3)) | cells expressing tyrosine hydroxylase (human cell line (#H3)) | expression of pancreatic products (human cell line (#H3)) | differentiation of IPCs to IdIs ([1]; in combination with epidermal growth factor or hepatocyte growth factor, data not shown) | insulin content of IdIs ([1]; nicotinamide 1-10 mM for 5 days, then 17.5 mM glucose 3 hours, versus glucose alone) | insulin secretion of IdIs ([1]; nicotinamide 1-10 mM for 5 days, then 17.5 mM glucose 3 hours, versus glucose alone, P<0.05) | nicotinamide concentration at which Ins I was expressed (IPSC line #7; IPSC line #7) [mM] | nicotinamide concentration at which Ins II was expressed (IPSC line #7; IPSC line #7) [mM] | nicotinamide dose at which glucagon expression was visible (IPSC line #7; IPSC line #7, data not shown) [mM] | nicotinamide doses at which amylase expression was maintained (IPSC line #7; IPSC line #7, data not shown) [mM] | expression of development/differentiation factors (IPSC line #7; at different doses, data not shown)
N=C(N)NCCC[C@H](N)C(=O)O [arginine] | induced insulin release |  |  |  |  |  |  |  |  |  |  | 
glucagon like peptide-1 (HAEGTFTSDVSSYLEGQAAKEFIAWLVKGR; ends and bridges not checked; UniProt P01275 98-127, looked up) [GLP-1, secretagogue stimulating β cells through elevation of cAMP and the protein kinase A pathway] | induced insulin release |  |  |  |  |  |  |  |  |  |  | 
NC(=O)c1cccnc1 [nicotinamide] |  | about 2% | None | express glucagon (FIG. 16K), amylase (FIG. 16I), cytokeratin 7 (FIG. 16C), and cytokeratin 19 (FIG. 16E) | induced the differentiation of IPCs to IdIs | increased insulin content | significantly increased levels of insulin | 1 to 20 | 20 to 40 | < 10 | 0 to 40 | enhancement of Isl-1, beta2/neuroD, IPF-1, Nkx 2.2 and 6.1

— patent US20080274090A1, “REVERSAL OF INSULIN-DEPENDENT DIABETES BY ISLET-PRODUCING STEM CELLS, ISLET PROGENITOR CELLS AND ISLET-LIKE STRUCTURES” (UNIVERSITY OF FLORIDA RESEARCH FOUNDATION, INC., priority 2000, published 2008)
